Laboratory results reported in patent publication US12281149B2, “Modulators of G-protein coupled receptors” (priority 2021, dated 2025).
*1 amine or outer side, *2 acyl side, *3 side chain or, on linkers, in order; H or OH if unused. Where a SMILES comes first, the peptide text is derived from it. Side-chain parts run from the residue outwards. [ ]: non-standard residue; d: D form. The star is where a group is joined. Isobutyryl(2-(3-CN-5-F-Ph)) = CC(C)(C(=O)*)c1cc(F)cc(C#N)c1; Ala(1H-tetrazol-5-yl) = N[C@@H](Cc1nnn[nH]1)C(=O)O; C20 diacid = O=C(O)CCCCCCCCCCCCCCCCCCC(=O)*; γGlu = O=C(O)[C@H](CCC(=O)[*:2])N[*:1]; X45 = CC(Cn1cc(Br)cn1)NCCC(=O)*; X41 = C[C@H](C(=O)*)c1ccccc1; X6 = CC(C)(C(=O)*)c1ccccc1; AEEA = NCCOCCOCC(=O)O; Aib = CC(C)(N)C(=O)O; βAla = NCCC(=O)O

Assays:
Assay type in all cases: cell-based
GLP-1 receptor [1] = molecular target: T1, GLP-1 receptor (Homo sapiens, UniProt P43220); assay: PathHunter β-arrestin assay, GLP-1 receptor; design: host or cells: PathHunter CHO-K1 GLP1R β-Arrestin Cell Line
T1 sequence (P43220 24-463): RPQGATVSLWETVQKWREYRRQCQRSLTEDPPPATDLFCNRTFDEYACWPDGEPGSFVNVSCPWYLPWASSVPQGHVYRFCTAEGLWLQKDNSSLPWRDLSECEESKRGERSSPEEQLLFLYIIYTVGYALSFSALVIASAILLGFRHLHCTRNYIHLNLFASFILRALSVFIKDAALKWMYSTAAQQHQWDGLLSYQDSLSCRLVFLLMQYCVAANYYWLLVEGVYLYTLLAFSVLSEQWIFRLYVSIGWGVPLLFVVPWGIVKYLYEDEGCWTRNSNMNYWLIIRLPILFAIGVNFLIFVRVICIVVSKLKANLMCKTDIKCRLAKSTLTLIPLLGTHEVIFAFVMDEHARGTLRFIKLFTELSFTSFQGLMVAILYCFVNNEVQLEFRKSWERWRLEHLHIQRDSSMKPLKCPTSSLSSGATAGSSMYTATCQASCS

GIP receptor [2] = molecular target: T2, GIP receptor (Homo sapiens, UniProt P48546); assay: PathHunter β-arrestin assay, GIP receptor; design: host or cells: PathHunter CHO-K1 GIPR β-Arrestin Cell Line
T2 sequence (P48546 22-466): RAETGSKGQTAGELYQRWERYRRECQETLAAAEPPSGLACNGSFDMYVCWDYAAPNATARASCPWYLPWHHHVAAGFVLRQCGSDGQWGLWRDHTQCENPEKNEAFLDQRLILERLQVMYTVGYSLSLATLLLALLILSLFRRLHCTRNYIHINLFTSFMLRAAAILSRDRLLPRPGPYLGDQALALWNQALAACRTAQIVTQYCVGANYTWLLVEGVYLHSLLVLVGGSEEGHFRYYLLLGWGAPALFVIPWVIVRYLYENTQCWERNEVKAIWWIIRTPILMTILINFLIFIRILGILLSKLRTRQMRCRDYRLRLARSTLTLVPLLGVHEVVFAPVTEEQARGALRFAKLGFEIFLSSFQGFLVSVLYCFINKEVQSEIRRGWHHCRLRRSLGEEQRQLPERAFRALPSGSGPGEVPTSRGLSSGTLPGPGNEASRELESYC

GLP-1 receptor [3] = molecular target: T1, GLP-1 receptor; assay: HitHunter cAMP assay, GLP-1 receptor; conditions: for Emax: CHO cells, cAMP, normalized to maximum signal from GLP-1 (high) and DMSO (low), read-out: Emax GLP-1R
GIP receptor [4] = molecular target: T2, GIP receptor; assay: HitHunter cAMP assay, GIP receptor; conditions: for Emax: CHO cells, cAMP, normalized to maximum signal from GIP (high) and DMSO (low), read-out: Emax GIP-1R
[5] = β-arrestin-2 recruitment, PathHunter CHO-K1 GLP1R β-Arrestin Cell Line, 90 min at 37° C., normalized to GLP-1, read-out: GLP-1R β Arrestin EC50
[6] = β-arrestin-2 recruitment, PathHunter CHO-K1 GIPR β-Arrestin Cell Line, 90 min at 37° C., normalized to GIP, read-out: GIPR β Arrestin EC50
[7] = CHO cells stably expressing human GLP-1 receptor, cAMP accumulation, 30 min, read-out: EC50 GLP-1R
[8] = CHO cells stably expressing GIP receptor, cAMP accumulation, 30 min, read-out: EC50 GIP-1R

Row | Structure (SMILES) | EC50 (GLP-1 receptor [1]; [5]) | EC50 (GIP receptor [2]; [6]) | EC50 (GLP-1 receptor [3]; [7]) | Emax (GLP-1 receptor [3]) | EC50 (GIP receptor [4]; [8]) | Emax (GIP receptor [4]) | EC50 (GLP-1 receptor [1]) | EC50 (GIP receptor [2]) | EC50 (GLP-1 receptor [3]) | EC50 (GIP receptor [4])
1 | CC[C@H](C)[C@H](NC(=O)[C@H](CC(C)C)NC(=O)[C@H](Cc1c[nH]c2ccccc12)NC(=O)[C@H](CCC(N)=O)NC(=O)[C@@H](NC(=O)[C@H](Cc1ccccc1)NC(=O)[C@H](C)NC(=O)[C@H](CCCCNC(=O)COCCOCCNC(=O)COCCOCCNC(=O)CC[C@H](NC(=O)CCCCCCCCCCCCCCCCCCC(=O)O)C(=O)O)NC(=O)[C@H](CCC(N)=O)NC(=O)[C@H](C)NC(=O)[C@@H](NC(=O)[C@H](CCCCN)NC(=O)[C@H](CC(=O)O)NC(=O)[C@H](CC(C)C)NC(=O)C(C)(C)NC(=O)[C@@H](NC(=O)[C@H](CO)NC(=O)[C@H](Cc1ccc(O)cc1)NC(=O)[C@H](CC(=O)O)NC(=O)[C@H](CO)NC(=O)[C@@H](NC(=O)[C@H](Cc1ccccc1)NC(=O)[C@@H](NC(=O)CNC(=O)[C@H](CCC(=O)O)NC(=O)CCNC(=O)[C@@H](C)c1ccccc1)[C@@H](C)O)[C@@H](C)O)[C@@H](C)CC)[C@@H](C)CC)C(C)C)C(=O)N[C@@H](C)C(=O)NCC(=O)NCC(=O)N1CCC[C@H]1C(=O)N[C@@H](CO)C(=O)N[C@@H](CO)C(=O)NCC(=O)N[C@@H](C)C(=O)N1CCC[C@H]1C(=O)N1CCC[C@H]1C(=O)N1CCC[C@H]1C(=O)N[C@@H](CO)C(N)=O [Compound 211] ({X41-βAla}-EGTFTSDYSI[Aib]LDKIAQK([AEEA-AEEA-γGlu-C20 diacid])AFVQWLIAGGPSSGAPPPS-NH2) | > 1000 nM | > 1000 nM | 0.1 to 1 nM | 107% | 10 to 100 nM | 103% |  |  |  | 
2 | CC[C@H](C)[C@H](NC(=O)[C@H](CC(C)C)NC(=O)[C@H](Cc1c[nH]c2ccccc12)NC(=O)[C@H](CCC(N)=O)NC(=O)[C@@H](NC(=O)[C@H](Cc1ccccc1)NC(=O)[C@H](C)NC(=O)[C@H](CCCCNC(=O)COCCOCCNC(=O)COCCOCCNC(=O)CC[C@H](NC(=O)CCCCCCCCCCCCCCCCCCC(=O)O)C(=O)O)NC(=O)[C@H](CCC(N)=O)NC(=O)[C@H](C)NC(=O)[C@@H](NC(=O)[C@H](CCCCN)NC(=O)[C@H](CC(=O)O)NC(=O)[C@H](CC(C)C)NC(=O)C(C)(C)NC(=O)[C@@H](NC(=O)[C@H](CO)NC(=O)[C@H](Cc1ccc(O)cc1)NC(=O)[C@H](CC(=O)O)NC(=O)[C@H](CO)NC(=O)[C@@H](NC(=O)[C@H](Cc1ccccc1)NC(=O)[C@@H](NC(=O)CNC(=O)[C@H](CCC(=O)O)NC(=O)CCNC(C)Cn1cc(Br)cn1)[C@@H](C)O)[C@@H](C)O)[C@@H](C)CC)[C@@H](C)CC)C(C)C)C(=O)N[C@@H](C)C(=O)NCC(=O)NCC(=O)N1CCC[C@H]1C(=O)N[C@@H](CO)C(=O)N[C@@H](CO)C(=O)NCC(=O)N[C@@H](C)C(=O)N1CCC[C@H]1C(=O)N1CCC[C@H]1C(=O)N1CCC[C@H]1C(=O)N[C@@H](CO)C(N)=O (stereo partly drawn) [Compound 274] (X45-EGTFTSDYSI[Aib]LDKIAQK([AEEA-AEEA-γGlu-C20 diacid])AFVQWLIAGGPSSGAPPPS-NH2) | > 1000 nM | > 1000 nM | 10 to 100 nM | 88% | 100 to 1000 nM | 36% |  |  |  | 
3 | CC[C@H](C)[C@H](NC(=O)[C@H](CC(C)C)NC(=O)[C@H](Cc1c[nH]c2ccccc12)NC(=O)[C@H](CCC(N)=O)NC(=O)[C@@H](NC(=O)[C@H](Cc1ccccc1)NC(=O)[C@H](C)NC(=O)[C@H](CCCCNC(=O)COCCOCCNC(=O)COCCOCCNC(=O)CC[C@H](NC(=O)CCCCCCCCCCCCCCCCCCC(=O)O)C(=O)O)NC(=O)[C@H](CCC(N)=O)NC(=O)[C@H](C)NC(=O)[C@@H](NC(=O)[C@H](CCCCN)NC(=O)[C@H](CC(=O)O)NC(=O)[C@H](CC(C)C)NC(=O)C(C)(C)NC(=O)[C@@H](NC(=O)[C@H](CO)NC(=O)[C@H](Cc1ccc(O)cc1)NC(=O)[C@H](CC(=O)O)NC(=O)[C@H](CO)NC(=O)[C@@H](NC(=O)[C@H](Cc1ccccc1)NC(=O)[C@@H](NC(=O)CNC(=O)[C@H](Cc1nn[nH]n1)NC(=O)CCNC(=O)C(C)(C)c1cc(F)cc(C#N)c1)[C@@H](C)O)[C@@H](C)O)[C@@H](C)CC)[C@@H](C)CC)C(C)C)C(=O)N[C@@H](C)C(=O)NCC(=O)NCC(=O)N1CCC[C@H]1C(=O)N[C@@H](CO)C(=O)N[C@@H](CO)C(=O)NCC(=O)N[C@@H](C)C(=O)N1CCC[C@H]1C(=O)N1CCC[C@H]1C(=O)N1CCC[C@H]1C(=O)N[C@@H](CO)C(N)=O [Compound 136] ({Isobutyryl(2-(3-CN-5-F-Ph))-βAla}-[Ala(1H-tetrazol-5-yl)]GTFTSDYSI[Aib]LDKIAQK([AEEA-AEEA-γGlu-C20 diacid])AFVQWLIAGGPSSGAPPPS-NH2) | > 1000 nM | < 1000 nM | < 0.1 nM | 101% | 1 to 10 nM | 99% |  |  |  | 
4 | CC[C@H](C)[C@H](NC(=O)[C@H](CO)NC(=O)[C@H](CCCCNC(=O)COCCOCCNC(=O)COCCOCCNC(=O)CC[C@H](NC(=O)CCCCCCCCCCCCCCCCCCC(=O)O)C(=O)O)NC(=O)[C@H](CC(=O)O)NC(=O)[C@H](CO)NC(=O)[C@@H](NC(=O)[C@H](Cc1ccccc1)NC(=O)[C@@H](NC(=O)CNC(=O)[C@H](CCC(=O)O)NC(=O)CCNC(=O)C(C)(C)c1cccc(C#N)c1)[C@@H](C)O)[C@@H](C)O)C(=O)N[C@@H](Cc1ccc(O)cc1)C(=O)N[C@@H](CC(C)C)C(=O)N[C@@H](CC(=O)O)C(=O)N[C@@H](CCCCN)C(=O)N[C@@H](CCC(N)=O)C(=O)N[C@@H](C)C(=O)N[C@@H](C)C(=O)NC(C)(C)C(=O)N[C@@H](CCC(=O)O)C(=O)N[C@@H](Cc1ccccc1)C(=O)N[C@H](C(=O)N[C@@H](CC(N)=O)C(=O)N[C@@H](Cc1c[nH]c2ccccc12)C(=O)N[C@@H](CC(C)C)C(=O)N[C@@H](CC(C)C)C(=O)N[C@@H](C)C(=O)NCC(=O)NCC(=O)N1CCC[C@H]1C(=O)N[C@@H](CO)C(=O)N[C@@H](CO)C(=O)NCC(=O)N[C@@H](C)C(=O)N1CCC[C@H]1C(=O)N1CCC[C@H]1C(=O)N1CCC[C@H]1C(=O)N[C@@H](CO)C(N)=O)C(C)C [Compound 143] |  |  |  | 101% |  | 100% | < 1000 nM | > 1000 nM | < 0.1 nM | 10 to 100 nM
5 | CC[C@H](C)[C@H](NC(=O)[C@H](CC(C)C)NC(=O)[C@H](Cc1c[nH]c2ccccc12)NC(=O)[C@H](CCC(N)=O)NC(=O)[C@@H](NC(=O)[C@H](Cc1ccccc1)NC(=O)[C@H](C)NC(=O)[C@H](CCCCNC(=O)COCCOCCNC(=O)COCCOCCNC(=O)CC[C@H](NC(=O)CCCCCCCCCCCCCCCCCCC(=O)O)C(=O)O)NC(=O)[C@H](CCC(N)=O)NC(=O)[C@H](C)NC(=O)[C@@H](NC(=O)[C@H](CCCCN)NC(=O)[C@H](CC(=O)O)NC(=O)[C@H](CC(C)C)NC(=O)C(C)(C)NC(=O)[C@@H](NC(=O)[C@H](CO)NC(=O)[C@H](Cc1ccc(O)cc1)NC(=O)[C@H](CC(=O)O)NC(=O)[C@H](CO)NC(=O)[C@@H](NC(=O)[C@H](Cc1ccccc1)NC(=O)[C@@H](NC(=O)CNC(=O)[C@H](CCC(=O)O)NC(=O)CCNC(=O)C(C)(C)c1ccccc1)[C@@H](C)O)[C@@H](C)O)[C@@H](C)CC)[C@@H](C)CC)C(C)C)C(=O)N[C@@H](C)C(=O)NCC(=O)NCC(=O)N1CCC[C@H]1C(=O)N[C@@H](CO)C(=O)N[C@@H](CO)C(=O)NCC(=O)N[C@@H](C)C(=O)N1CCC[C@H]1C(=O)N1CCC[C@H]1C(=O)N1CCC[C@H]1C(=O)N[C@@H](CO)C(N)=O [Compound 241] ({X6-βAla}-EGTFTSDYSI[Aib]LDKIAQK([AEEA-AEEA-γGlu-C20 diacid])AFVQWLIAGGPSSGAPPPS-NH2) | < 1000 nM | < 1000 nM | 0.1 to 1 nM | 95% | 1 to 10 nM | 100% |  |  |  | 
